This is an account of results in patent US20260356856A1, “KRAS G12S AND G12C INHIBITORS” (MIRATI THERAPEUTICS, INC., priority 2023, published 2026).

As usually defined, the IC50 is the midpoint of a concentration-inhibition curve. A lower IC50 goes with greater potency.

The target in assay [1] is T1, KRas-mediated phosphorylation of ERK in H358 cells (Homo sapiens, UniProt P01116, G12C).
T1 construct: pERK HTRF read-out
Put plainly: Inhibition of KRas-mediated phosphorylation of ERK (HTRF), H358 cells. To be noted: HTRF pERK, 3 h incubation. The assay is classed as cell-based.

The target in assay [2] is T2, KRas-mediated phosphorylation of ERK in A549 cells (Homo sapiens, UniProt P01116, G12S).
T2 construct: pERK HTRF read-out
As to the kind of experiment: Inhibition of KRas-mediated phosphorylation of ERK (HTRF), A549 cells. To be noted: HTRF pERK, 3 h incubation. The assay is classed as cell-based. In general terms: TR-FRET usually uses a lanthanide donor and a delayed reading to cut background.

Assay [3] addresses T3, KRas-mediated phosphorylation of ERK in MKN1 cells (Homo sapiens, UniProt P01116).
T3 construct: pERK HTRF read-out
As to the kind of experiment: Inhibition of KRas-mediated phosphorylation of ERK (HTRF), MKN1 cells. The assay is classed as cell-based. To be noted: MKN1 cells (KRas WT); HTRF pERK; 3 h incubation. The protocol: Inhibition of KRas Phosphorylation of ERK (HTRF) by Exemplary Compounds of Formula (Ia) or (Ib)
Cisbio HTRF Advanced pERK Assay Catalog #64AERPEH • Cells: MKN1, PSN1 • Procedure: • 1. Day 1: Seed 6,000 cells/well −25 μl/well in 384-well white solid bottom plate; RPM1_10% FBS. Incubate overnight at 37 °C/5% CO2. • 2.

A further assay deals with T4, KRas G12S (Homo sapiens, UniProt P01116, G12S).
T4 construct: Biotinylated KRas (corresponding to amino acids 1-169, produced at Accelegan Inc.); biotin (biotinylated); purchased Accelegan Inc
As to the kind of experiment: KRas binding assay, TR-FRET displacement of Cy5 labelled tracer. To be noted: 60-minute incubation at room temperature, 1% DMSO, pH 7.5. The procedure, abridged: (§1)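 Truncated KRas (1-169), biotinylated, Tb-streptavidin donor; one-hour room-temperature incubation; IC50 by four-parameter curve fitting.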

The target in the next assay is T5, KRas G12C (Homo sapiens, UniProt P01116, G12C).
T5 construct: Biotinylated KRas (corresponding to amino acids 1-169, produced at Accelegan Inc.); biotin (biotinylated); purchased Accelegan Inc
Described as above. To be noted: 60-minute incubation at room temperature, 1% DMSO, pH 7.5. A digest of the protocol:
as §1

Another assay concerns the target T6, KRas WT (Homo sapiens, UniProt P01116).
T6 construct: Biotinylated KRas (corresponding to amino acids 1-169, produced at Accelegan Inc.); biotin (biotinylated); purchased Accelegan Inc
The description is as above. The conditions noted are these: 60-minute incubation at room temperature, 1% DMSO, pH 7.5. A digest of the protocol: as §1

T1 sequence (P01116 1-188 isoform P01116-2 G12C): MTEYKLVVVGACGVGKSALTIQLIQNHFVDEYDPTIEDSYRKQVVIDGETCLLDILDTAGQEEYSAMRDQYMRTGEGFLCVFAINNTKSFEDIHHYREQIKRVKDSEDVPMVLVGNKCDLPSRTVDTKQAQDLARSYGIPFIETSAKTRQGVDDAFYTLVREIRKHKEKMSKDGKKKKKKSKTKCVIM
T5 sequence (P01116 1-169 isoform P01116-2 G12C): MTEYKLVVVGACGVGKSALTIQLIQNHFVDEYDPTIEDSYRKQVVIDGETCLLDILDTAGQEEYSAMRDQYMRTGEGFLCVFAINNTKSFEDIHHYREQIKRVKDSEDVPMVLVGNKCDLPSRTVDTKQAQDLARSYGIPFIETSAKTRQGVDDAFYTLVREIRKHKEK
T2 sequence (P01116 1-188 isoform P01116-2 G12S): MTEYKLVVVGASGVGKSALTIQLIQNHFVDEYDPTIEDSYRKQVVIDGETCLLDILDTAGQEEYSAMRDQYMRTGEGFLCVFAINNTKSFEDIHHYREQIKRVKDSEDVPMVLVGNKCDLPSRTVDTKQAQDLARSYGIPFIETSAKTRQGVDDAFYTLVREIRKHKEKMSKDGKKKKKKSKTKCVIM
T3 sequence (P01116 1-188 isoform P01116-2): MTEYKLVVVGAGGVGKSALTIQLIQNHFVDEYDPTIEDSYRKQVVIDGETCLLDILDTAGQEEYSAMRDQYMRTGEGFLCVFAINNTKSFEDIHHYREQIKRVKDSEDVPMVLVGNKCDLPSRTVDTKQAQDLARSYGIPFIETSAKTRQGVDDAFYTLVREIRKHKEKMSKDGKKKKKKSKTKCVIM
T4 sequence (P01116 1-169 isoform P01116-2 G12S): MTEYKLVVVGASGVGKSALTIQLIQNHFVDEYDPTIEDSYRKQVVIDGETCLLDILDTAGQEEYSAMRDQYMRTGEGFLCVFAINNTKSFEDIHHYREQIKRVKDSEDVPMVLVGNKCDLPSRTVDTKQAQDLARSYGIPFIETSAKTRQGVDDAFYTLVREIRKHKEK
T6 sequence (P01116 1-169 isoform P01116-2): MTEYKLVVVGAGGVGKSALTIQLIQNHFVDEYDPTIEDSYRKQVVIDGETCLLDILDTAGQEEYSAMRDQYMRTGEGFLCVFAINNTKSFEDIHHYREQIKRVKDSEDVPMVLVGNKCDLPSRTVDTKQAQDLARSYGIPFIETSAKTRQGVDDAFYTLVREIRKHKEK

For the molecule `CCc1c(F)ccc2cc(O)cc(-c3ncc4c(N5CCCC(C(=O)n6ccc(C)n6)CC5)nc(OCC5(CN(C)C)CC5)nc4c3F)c12` (stereo not drawn) [Example 167, (1-(2-((1-((dimethylamino)methyl)cyclopropyl)methoxy)-7-(8-ethyl-7-fluoro-3-hydroxynaphthalen-1-yl)-8-fluoropyrido[4,3-d]pyrimidin-4-yl)azepan-4-yl)(3-methyl-1H-pyrazol-1-yl)methanone], the IC50 in assay [1] is 5100 nM; in assay [2], 326 nM; in assay [3], 3050 nM; at KRas G12S it was 29 nM; on KRas G12C it was 94 nM; on KRas WT it was 528 nM.

Consider `Cc1ccn(C(=O)C2CCCN(c3nc(OC[C@@]45CCCN4C/C(=C\F)C5)nc4c(F)c(-c5ccc(F)c6sc(N)c(C#N)c56)c(Cl)cc34)CC2)n1` (stereo partly drawn) [Example 175, 2-amino-4-(6-chloro-8-fluoro-2-(((S,Z)-2-(fluoromethylene)tetrahydro-1H-pyrrolizin-7a(5H)-yl)methoxy)-4-(4-(3-methyl-1H-pyrazole-1-carbonyl)azepan-1-yl)quinazolin-7-yl)-7-fluorobenzo[b]thiophene-3-carbonitrile], for which the IC50 in assay [1] is 11 nM; in assay [2] it was 6 nM; in assay [3], 177 nM; at KRas G12S, 8 nM; on KRas G12C, 9 nM; at KRas WT it was 16 nM.

For `Cc1ccn(C(=O)CCN(C)c2nc(OC[C@@]34CCCN3C[C@H](F)C4)nc3c(F)c(-c4ccc(F)c5sc(N)c(C#N)c45)c(Cl)cc23)n1` [Example 176, 2-amino-4-(6-chloro-8-fluoro-2-(((2R,7aS)-2-fluorotetrahydro-1H-pyrrolizin-7a(5H)-yl)methoxy)-4-(methyl(3-(3-methyl-1H-pyrazol-1-yl)-3-oxopropyl)amino)quinazolin-7-yl)-7-fluorobenzo[b]thiophene-3-carbonitrile], the 50% inhibitory concentration (IC50) worked out at 295 nM in assay [1]; 388 nM in assay [2]; 250 nM in assay [3]; 5 nM on KRas G12S; 3 nM at KRas G12C; 12 nM on KRas WT.

Regarding `Cc1ccn(C(=O)CCNc2nc(OC[C@@]34CCCN3C[C@H](F)C4)nc3c(F)c(-c4ccc(F)c5sc(N)c(C#N)c45)c(Cl)cc23)n1` [Example 177, 2-amino-4-(6-chloro-8-fluoro-2-(((2R,7aS)-2-fluorotetrahydro-1H-pyrrolizin-7a(5H)-yl)methoxy)-4-((3-(3-methyl-1H-pyrazol-1-yl)-3-oxopropyl)amino)quinazolin-7-yl)-7-fluorobenzo[b]thiophene-3-carbonitrile], the half-maximal inhibitory concentration (IC50) amounted to 1110 nM in assay [1]; 227 nM in assay [2]; 1250 nM in assay [3]; 4 nM at KRas G12S; 2 nM at KRas G12C; 9 nM at KRas WT.

Regarding `Cc1ccn(C(=O)C2CC3CN(c4nc(OC[C@@]56CCCN5C[C@H](F)C6)nc5c(F)c(-c6ccc(F)c7sc(N)c(C#N)c67)c(Cl)cc45)CC32)n1` (stereo partly drawn) [Example 178, 2-amino-4-(6-chloro-8-fluoro-2-(((2R,7aS)-2-fluorotetrahydro-1H-pyrrolizin-7a(5H)-yl)methoxy)-4-(6-(3-methyl-1H-pyrazole-1-carbonyl)-3-azabicyclo[3.2.0]heptan-3-yl)quinazolin-7-yl)-7-fluorobenzo[b]thiophene-3-carbonitrile], the IC50 in assay [1] came out at 226 nM; in assay [2], 108 nM; in assay [3], 356 nM; on KRas G12S it was 15 nM; at KRas G12C it was 13 nM; on KRas WT it was 44 nM.

As for `Cc1ccn(C(=O)C2C[C@@H]3CN(c4nc(OC[C@@]56CCCN5C[C@H](F)C6)nc5c(F)c(-c6ccc(F)c7sc(N)c(C#N)c67)c(Cl)cc45)C[C@@H]3C2)n1` (stereo partly drawn) [Example 180, 2-amino-4-(6-chloro-8-fluoro-2-(((2R,7aS)-2-fluorotetrahydro-1H-pyrrolizin-7a(5H)-yl)methoxy)-4-((3aR,6aS)-5-(3-methyl-1H-pyrazole-1-carbonyl)hexahydrocyclopenta[c]pyrrol-2 (1H)-yl)quinazolin-7-yl)-7-fluorobenzo[b]thiophene-3-carbonitrile], the IC50 in assay [1] worked out at 232 nM; in assay [2], 27 nM; in assay [3] it was 441 nM; on KRas G12S, 4 nM; on KRas G12C it was 26 nM; at KRas WT it was 67 nM.

Take `Cc1ccn(C(=O)[C@@H]2C[C@H]2CNc2nc(OC[C@@]34CCCN3C[C@H](F)C4)nc3c(F)c(-c4ccc(F)c5sc(N)c(C#N)c45)c(Cl)cc23)n1` [Example 181, 2-amino-4-(6-chloro-8-fluoro-2-(((2R,7aS)-2-fluorotetrahydro-1H-pyrrolizin-7a(5H)-yl)methoxy)-4-((((trans)-2-(3-methyl-1H-pyrazole-1-carbonyl)cyclopropyl)methyl)amino)quinazolin-7-yl)-7-fluorobenzo[b]thiophene-3-carbonitrile]: the IC50 in assay [1] amounted to 71 nM; in assay [2], 15 nM; in assay [3], 111 nM; at KRas G12S, 9 nM; on KRas G12C it was 10 nM; on KRas WT it was 17 nM.

In the case of `N#Cc1c(N)sc2c(F)ccc(-c3c(Cl)cc4c(N5CCN(S(=O)(=O)n6cncn6)CC5)nc(OC[C@@]56CCCN5C[C@H](F)C6)nc4c3F)c12` [Example 186, 4-(4-(4-((1H-1,2,4-triazol-1-yl)sulfonyl)piperazin-1-yl)-6-chloro-8-fluoro-2-(((2R,7aS)-2-fluorotetrahydro-1H-pyrrolizin-7a(5H)-yl)methoxy)quinazolin-7-yl)-2-amino-7-fluorobenzo[b]thiophene-3-carbonitrile], the IC50 in assay [1] stood at 1120 nM; in assay [2] it was 2830 nM; in assay [3] it was 184 nM; on KRas G12S, 156 nM; at KRas G12C, 136 nM; at KRas WT, 32 nM.

With `CN(C)c1ccn(C(=O)C2CCCN(c3nc(OC[C@@]45CCCN4C[C@H](F)C5)nc4c(F)c(-c5ccc(F)c6sc(N)c(C#N)c56)c(Cl)cc34)CC2)n1` (stereo partly drawn) [Example 188, 2-amino-4-(6-chloro-4-(4-(3-(dimethylamino)-1H-pyrazole-1-carbonyl)azepan-1-yl)-8-fluoro-2-(((2R,7aS)-2-fluorotetrahydro-1H-pyrrolizin-7a(5H)-yl)methoxy)quinazolin-7-yl)-7-fluorobenzo[b]thiophene-3-carbonitrile], the IC50 in assay [1] came out at 9 nM; in assay [2] it was 39 nM; in assay [3], 140 nM; at KRas G12S, 13 nM; at KRas G12C it was 8 nM; at KRas WT it was 26 nM.

For the molecule `N#Cc1c(N)sc2c(F)ccc(-c3c(Cl)cc4c(N5CCCC(C(=O)n6ccc(C7CC7)n6)CC5)nc(OC[C@@]56CCCN5C[C@H](F)C6)nc4c3F)c12` (stereo partly drawn) [Example 189, 2-amino-4-(6-chloro-4-(4-(3-cyclopropyl-1H-pyrazole-1-carbonyl)azepan-1-yl)-8-fluoro-2-(((2R,7aS)-2-fluorotetrahydro-1H-pyrrolizin-7a(5H)-yl)methoxy)quinazolin-7-yl)-7-fluorobenzo[b]thiophene-3-carbonitrile], the IC50 in assay [1] worked out at 43 nM; in assay [2], 27 nM; in assay [3] it was 199 nM; on KRas G12S it was 8 nM; on KRas G12C, 13 nM; at KRas WT, 24 nM.

Consider `COCc1ccn(C(=O)C2CCCN(c3nc(OC[C@@]45CCCN4C[C@H](F)C5)nc4c(F)c(-c5ccc(F)c6sc(N)c(C#N)c56)c(Cl)cc34)CC2)n1` (stereo partly drawn) [Example 190, 2-amino-4-(6-chloro-8-fluoro-2-(((2R,7aS)-2-fluorotetrahydro-1H-pyrrolizin-7a(5H)-yl)methoxy)-4-(4-(3-(methoxymethyl)-1H-pyrazole-1-carbonyl)azepan-1-yl)quinazolin-7-yl)-7-fluorobenzo[b]thiophene-3-carbonitrile], for which the 50% inhibitory concentration (IC50) came out at 7 nM in assay [1]; 7 nM in assay [2]; 205 nM in assay [3]; 4 nM at KRas G12S; 5 nM at KRas G12C; 13 nM at KRas WT.

`N#Cc1c(N)sc2c(F)ccc(-c3c(Cl)cc4c(N5CCN(C(=O)n6nccn6)CC5)nc(OC[C@@]56CCCN5C[C@H](F)C6)nc4c3F)c12` [Example 191, 4-(4-(4-(2H-1,2,3-triazole-2-carbonyl)piperazin-1-yl)-6-chloro-8-fluoro-2-(((2R,7aS)-2-fluorotetrahydro-1H-pyrrolizin-7a(5H)-yl)methoxy)quinazolin-7-yl)-2-amino-7-fluorobenzo[b]thiophene-3-carbonitrile]: the IC50 is 1 nM in assay [1]; 290 nM in assay [2]; 15 nM in assay [3]; 7 nM on KRas G12S; less than 2 nM on KRas G12C; 6 nM on KRas WT.
